Data as given in patent publication US20110105554A1, “MEANS FOR TREATING MYOSIN-RELATED DISEASES” (KINARIS BIOMEDICALS GMBH, priority 2007, published 2011).
“Also recorded” adds a separate entry of the source.

Assays:
[1] = target: T1, Dictyostelium myosin-1E (Dictyostelium discoideum, UniProt Q03479); assay: Basal ATPase activity, Dictyostelium myosin-1E; assay type: biochemical; details: read-out: concentration required for half-maximal inhibition of basal ATPase activity
T1 construct: comprising amino acids 1-698, 1-765, and 1-839 respectively; made in house
Description: (§1) FIG. 18: KIN-68-inhibition of the basal ATPase activity of Dictyostelium myosin-1E and myosin-5b.

[2] = target: T2, Dictyostelium myosin-5b (Dictyostelium discoideum, UniProt P54697); assay: Basal ATPase activity, Dictyostelium myosin-5b; assay type: biochemical; details: read-out: concentration required for half-maximal inhibition of basal ATPase activity
T2 construct: comprising amino acids 1-698, 1-765, and 1-839 respectively; made in house
Description: as §1

[3] = tested on: myosin-1 isoforms; assay: Selectivity for myosin isoforms (Example 3), myosin-1; assay type: biochemical
Description: In this context, preferred selectivity means a more than 20-fold smaller IC50 value compared to fast skeletal muscle myosin-2 and other references myosins.

[4] = target: T3, Dictyostelium myosin-2 (Dictyostelium discoideum, UniProt P08799, C312Y/S249N); assay: Actin-activated ATPase activity (NADH-coupled assay), Dictyostelium myosin-2; assay type: biochemical; details: 30 μM actin; read-out: IC50, ATPase activity in the presence of actin
T3 construct: comprising amino acids 1-698, 1-765, and 1-839 respectively; made in house
Experimental: Based on the structure of the myosin-2 motor domain with bound PBP, we performed molecular modeling studies to elucidate the specificity of PBP-binding to myosins from different classes. […] To test the predictions from the modeling studies, we determined actin-activated ATPase activities in the presence of 0 to 150 μM PBP with rabbit skeletal myosin-2 heavy meromyosin (HMM), myosin-5a isolated from chicken brain, and recombinant Dictyostelium myosin class-1, 2 and 5 motor-domain constructs (FIG. 9a). […] The concentrations of PBP required for half-maximal inhibition of the different myosin motors was calculated from fitting the data to hyperbolae. […] To determine the extend to which PBP impairs the coupling between the actin- and nucleotide-binding sites of myosin, we measured the ATP turn-over rates of Dictyostelium myosin-2 and myosin-5b motor domain constructs over the range from 0 to 50 μM F-actin in the absence and presence of 25 μM PBP.
Values for the rate of maximum ATP turnover (kcat), the concentration of F-actin at which half-maximal activation is achieved (Kapp), and the apparent second order rate constant for actin binding (kcat/Kapp) were estimated from a fit of the data to a hyperbolic function. kcat/Kapp is a direct measure of the coupling efficiency between actin and nucleotide binding and can be determined from the initial slope at F-actin concentrations much smaller than Kapp. […] ATP turn-over rates of Dictyostelium myosin-2 (◯) and Dictyostelium myosin-5b (▪) at increasing F-actin concentrations in the absence (filled symbols) and presence (open symbols) of 25 μM pentabromopseudilin (FIG. 9b):
Protein preparation. Rabbit fast skeletal muscle heavy meromyosin (HMM) was prepared as described by Kron and Spudich^9. Motor domain constructs of myosin-1E, myosin-2, and myosin-5b from Dictyostelium discoideum comprising amino acids 1-698, 1-765, and 1-839 respectively, were prepared as described previouslyl^10-12. Myosin-5a heavy meromyosin from chicken brain was provided by Dr. T. Scholz (Hannover Medical School, Germany) and F-actin was prepared as described by Lehrer and Kerwar^13.
Steady-state kinetics. Basal and actin-activated Mg^2+-ATPase activities were measured with the NADH-coupled assay^19 in a buffer containing 25 mM HEPES, 25 mM KCl, and 4 mM MgCl2, 0.5 mM DTT at pH 7.0 in the presence of 1 mM ATP at 25° C. PBP was added to the reaction mixture in the absence of nucleotide and incubated for 20 minutes before the reaction was started by the addition of ATP. NADH oxidation was followed using the change in absorption at 340 nm in a Beckman DU-800 spectrophotometer.

[5] = target: T4, Dictyostelium myosin-2 (Dictyostelium discoideum, UniProt P08799, C312Y/S249N); assay: Basal ATPase activity, Dictyostelium myosin-2; assay type: biochemical
T4 construct: comprising amino acids 1-698, 1-765, and 1-839 respectively; made in house
T4 sequence (P08799 1-765 S249N/C312Y): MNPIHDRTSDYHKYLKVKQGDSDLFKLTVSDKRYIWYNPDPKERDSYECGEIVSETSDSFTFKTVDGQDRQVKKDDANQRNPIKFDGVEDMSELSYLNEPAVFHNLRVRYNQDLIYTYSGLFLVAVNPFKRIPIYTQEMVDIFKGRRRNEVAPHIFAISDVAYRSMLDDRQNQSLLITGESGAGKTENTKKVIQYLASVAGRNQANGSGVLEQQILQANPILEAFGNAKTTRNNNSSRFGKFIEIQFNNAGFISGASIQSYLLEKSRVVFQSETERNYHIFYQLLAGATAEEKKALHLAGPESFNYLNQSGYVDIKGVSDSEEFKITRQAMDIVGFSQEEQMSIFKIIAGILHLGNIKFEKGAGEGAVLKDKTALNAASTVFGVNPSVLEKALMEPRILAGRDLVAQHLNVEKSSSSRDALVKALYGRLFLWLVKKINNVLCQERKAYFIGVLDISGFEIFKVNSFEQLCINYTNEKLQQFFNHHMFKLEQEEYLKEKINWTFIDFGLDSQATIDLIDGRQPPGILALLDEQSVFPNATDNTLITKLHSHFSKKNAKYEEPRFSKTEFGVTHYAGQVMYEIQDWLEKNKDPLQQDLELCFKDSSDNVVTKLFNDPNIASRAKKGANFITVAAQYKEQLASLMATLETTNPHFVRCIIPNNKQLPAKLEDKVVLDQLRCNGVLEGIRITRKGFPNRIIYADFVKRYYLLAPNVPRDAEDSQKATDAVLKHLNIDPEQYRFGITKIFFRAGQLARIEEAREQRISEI
Experimental: (a) Concentrations of […] in the range from 1 to 50 μM activate the basal ATPase activity of Dictyostelium myosin-2 with an apparent half maximum activation constant AC50 of 18 μM. At concentrations of KIN-74>50 μM the basal ATPase activity of Dictyostelium myosin-2 is inhibited with IC50=90 μM.
Compounds KIN-74, KIN-77 are activators of myosin-2 function. KIN-74 activates the ATPase activity of Dictyostelium myosin-2 in the absence of actin. ATPase activity is uncoupled from motor activity in this situation. The apparent half-maximum activation constant AC50 corresponds to 18 μM. Uncouplers have potential applications in inhibiting the overcontraction and overextension of cardiac muscles without being accompanied with a cardioinhibitory action. Therefore, compounds derived from KIN-74 have potential applications in the treatment of acute myocardial infarction helping to prevent the necrosis of cardiac muscles.

[6] = tested on: Plasmodium sporozoites; assay: Plasmodium sporozoite motility (in vitro imaging); assay type: cell-based
Description: FIG. 20: (a) Plasmodium sporozoites adopt motility states, shown in the photos from the left to the right, attached, waving, clockwise (CW), and counterclockwise (CCW). In the absence of inhibitors sporozoites preferably move CW and CCW at 0.97 μm/s and 1.13 μm/s.
Plasmodium sporozoites are moving at very low speed in the salivary glands of infected mosquitoes but are moving at high speed (2 μm/s) upon transmission into the vertebrate host. […] We followed single parasites using in vitro imaging approaches in combination with our bioactive compounds and discovered some intriguing features of sporozoite motility. Under normal conditions sporozoites move in circles, either counterclockwise or clockwise. Two other states of attachment and waving are less populated.

[7] = tested on: Plasmodium merozoites; assay: In vitro growth assay, blood stages of malaria; assay type: cell-based; details: 25 μM
[8] = Development toxicity testing on medaka embryos; details: medaka, in vivo
Experimental: (§2) (a) KIN-43 in concentrations between 0.5 μM and 100 μM were incubated for 48 h with 20 medaka embryos per concentration. […] (b) Light microscopy image of embryo after 48 h in the absence of KIN-43.
(§3) We are using a library of common organic molecules and functional groups and are applying an empirical force field description of the nonbonding interactions between a ligand and the binding site in order to build up de novo compounds with spatial and electrostatic properties complementary to the allosteric binding site.

[9] = tested on: medaka embryos; assay: Development toxicity testing on medaka embryos
Experimental: as §2, §3

[10] = in vitro; details: human
Experimental: (§4) Cytotoxicity may be assayed by determining the cellular uptake of neutral red. Only living cells are capable of neutral red uptake via an active transport mechanism. For an exemplary workflow of a cytotoxicity assay, see FIG. 16.
(§5) FIG. 16: Cytotoxicity assay.
(§6) FIG. 22: Cytotoxic testing of KIN-compounds by neutral red uptake assays. (a) human hepatocyte carcinoma cells (Hep G2) were exposed to KIN-43 for 4 h in the in presence of 1% FBS.
as §3

[11] = tested on: human hepatocyte carcinoma cells (Hep G2); assay: in vitro
Experimental: as §4, §5, §6, §3

T1 sequence (Q03479 1-698): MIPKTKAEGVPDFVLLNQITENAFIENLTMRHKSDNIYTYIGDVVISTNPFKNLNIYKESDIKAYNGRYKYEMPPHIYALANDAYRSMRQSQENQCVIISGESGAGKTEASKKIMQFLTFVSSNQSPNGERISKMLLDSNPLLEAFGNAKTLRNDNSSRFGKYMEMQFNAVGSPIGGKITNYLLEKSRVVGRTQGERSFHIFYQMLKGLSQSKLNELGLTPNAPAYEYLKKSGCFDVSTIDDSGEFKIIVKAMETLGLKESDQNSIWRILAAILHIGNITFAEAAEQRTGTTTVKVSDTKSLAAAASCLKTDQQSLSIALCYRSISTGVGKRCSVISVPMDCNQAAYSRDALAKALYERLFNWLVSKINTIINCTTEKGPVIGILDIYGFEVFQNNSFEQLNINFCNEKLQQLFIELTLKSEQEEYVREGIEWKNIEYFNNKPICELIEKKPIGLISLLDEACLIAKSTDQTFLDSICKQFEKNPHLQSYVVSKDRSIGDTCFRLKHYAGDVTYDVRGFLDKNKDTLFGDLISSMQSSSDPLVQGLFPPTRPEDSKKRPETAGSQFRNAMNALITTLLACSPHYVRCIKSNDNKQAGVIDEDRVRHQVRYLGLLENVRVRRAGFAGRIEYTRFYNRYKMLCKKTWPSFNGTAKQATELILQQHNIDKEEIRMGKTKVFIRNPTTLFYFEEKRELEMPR
T2 sequence (P54697 1-839): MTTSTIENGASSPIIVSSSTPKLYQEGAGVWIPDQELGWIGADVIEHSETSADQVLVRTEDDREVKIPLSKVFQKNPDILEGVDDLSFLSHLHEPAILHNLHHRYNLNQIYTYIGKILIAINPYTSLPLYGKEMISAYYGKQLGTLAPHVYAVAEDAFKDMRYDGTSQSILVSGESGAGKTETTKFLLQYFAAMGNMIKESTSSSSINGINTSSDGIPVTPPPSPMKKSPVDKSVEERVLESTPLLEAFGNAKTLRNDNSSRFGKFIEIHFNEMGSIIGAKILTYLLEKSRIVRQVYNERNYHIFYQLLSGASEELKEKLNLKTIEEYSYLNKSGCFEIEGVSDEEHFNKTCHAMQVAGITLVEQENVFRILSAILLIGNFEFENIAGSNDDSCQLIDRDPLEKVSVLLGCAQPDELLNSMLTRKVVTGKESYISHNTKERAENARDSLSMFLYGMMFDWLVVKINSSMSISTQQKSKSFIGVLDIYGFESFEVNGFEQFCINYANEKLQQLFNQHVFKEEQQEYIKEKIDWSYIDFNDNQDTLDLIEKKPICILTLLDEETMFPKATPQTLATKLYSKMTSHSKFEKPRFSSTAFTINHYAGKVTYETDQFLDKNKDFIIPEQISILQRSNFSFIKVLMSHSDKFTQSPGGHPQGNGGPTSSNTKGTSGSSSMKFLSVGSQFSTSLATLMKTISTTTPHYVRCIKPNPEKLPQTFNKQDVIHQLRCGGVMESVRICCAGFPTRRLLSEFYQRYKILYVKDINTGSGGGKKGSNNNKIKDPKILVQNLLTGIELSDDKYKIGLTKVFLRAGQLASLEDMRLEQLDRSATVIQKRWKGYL

## Oc1c(Cl)cc(Cl)cc1-c1[nH]c(Cl)c(Cl)c1Cl [KIN-68, pentachloropseudilin]
[1]
  IC50: 55.8 µM
[2]
  IC50: 105 µM
[3]
  preferred selectivity: fold smaller IC50 compared to fast skeletal muscle myosin-2 and other reference myosins: more than 20 fold

## Oc1c(F)cc(F)cc1-c1[nH]c(Br)c(Br)c1Br [KIN-74, 2,3,4-tribromo-5 (1′ hydroxy, 2′,4′-difluorophenyl)pyrrole]
[4]
  IC50: 88.8 µM
[5]; absence of actin, 1 to 50 μM, read-out: apparent half maximum activation constant AC50, basal ATPase activity
  AC50: 18 µM
[5]; at concentrations >50 μM
  IC50: 90 µM

## Oc1cc(F)c(F)c2c1[nH]c1ccc(F)cc12 [KIN-93]
[6]
  general cytotoxicity for erythrocytes or for Plasmodium sporozoites: No general cytotoxicity
[6]; 10 μM
  gliding velocity compared with control parasites: only half as fast
  motility states of the sporozoite population: switched the population to attached and waving states; also recorded: strongly reduced
[6]; 0.97 μm/s without inhibitor
  velocity of clockwise (CW) motility: 0.58 μm/s
[6]; 1.13 μm/s without inhibitor
  velocity of counterclockwise (CCW) motility: 0.59 μm/s
[7]
  effect on the blood stages of malaria: reducing the number of Plasmodium merozoites
[8]
  LC50 at 48 h: > 50 µM
[9]; below 50.0 μM
  lethal effect on medaka embryos: no lethal effect
[9]; in vivo
  embryonic development: not impaired
[10]
  CC50 at 4 h: > 50 µM
[11]
  neutral red uptake experiments, defects: do not reveal any defects
